The results in this text go back to patent US20240105277A1, “DRUG DISCOVERY VIA REI[…] WITH THREE-D[…]” (priority 2022, published 2024).

Usually Ki stands for a measure of affinity in units of concentration, obtained from inhibition or displacement. The low end stands for a stronger hold on the target, the high end for a looser hold on the target. By IC50 is commonly meant the concentration that gives 50% inhibition. A word on the kinact/KI: it is the maximal inactivation rate divided by the concentration that gives half of it.

Where “and” joins values, the source holds several entries; their conditions need not be identical. Equal values may be shown once. Read-outs that look alike come from different tables or passages of the source. Where only a bound is given, the exact number is not on record here.

Data set [1] has as its target T1, SARS-CoV-2 M^pro (Severe acute respiratory syndrome coronavirus 2, UniProt P0DTD1). The note with it: for Ki / kinact (10^−3 s^−1): saturation profile, with SEM.
Procedure: (§1) Similar fluorescence assay was used to determine the time dependent IC50 curves. The plate with 10 μL of enzyme (1 μM) and 10 μL of the appropriate inhibitor dilution in 20 mM Tris-HCl, pH 7.35 with 1.25% DMSO was incubated at room temperature on a titer plate shaker with varying enzyme pre-incubation times (2, 15, 30, 45, 60 and 120 min) and centrifuged briefly at 1000 g just before incubation time ends. […] The equation Y=(Top-Bottom)/(1+1{circumflex over (0)}(X-log IC50))+Bottom; X=log(concentration) and Y=binding; was used in the nonlinear regression.
Data set [2] has as its target T1, SARS-CoV-2 M^pro. The settings on record: for fold decrease in IC50, initial vs final inhibition value: t=2 minutes vs 2-hour preincubation.
Procedure: To validate the computational leads, the remaining compounds were subjected to a primary SARS-CoV-2 M^pro activity inhibition screen in which they were pre-incubated with the enzyme and the initial velocities of cleavage of a FRET peptide were determined. The Z′-factor of the assay was 0.65, and the distribution of z-scores of compounds and positive (no inhibitor) and negative (no enzyme) controls is shown in FIG. 20.
For each compound, IC50 curves were generated using a continuous fluorescence assay. Reaction volumes of 40 μL were used in Corning half area 96-well plates. […] All the reactions were done in triplicate. For IC50 determination, the initial rate data was used, and the kinetic values were obtained directly from nonlinear regression of substrate-velocity curves in the presence of various concentrations of the inhibitor. The equation Y=(Top-Bottom)/(1+1{circumflex over (0)}(X-log IC50))+Bottom; X=log(concentration) and Y=binding; was used in the nonlinear regression.
as §1
A further data set has as its system Vero E6 (CRL-1586) cells. Briefly: Cytotoxicity and cytopathic effect assay. The data set is classed as cell-based. The note with it: concentrations up to 10 μM, with or without PZ. Here is the method: The in vitro antiviral activity of all four hits was evaluated in Vero E6 (CRL-1586) cells. The antiviral properties of the inhibitors were assessed in the absence and presence of an efflux pump inhibitor (CP-100356, labeled PZ). […] Because of high cytotoxic effects of these compounds at high doses, the high doses were removed in the EC50 curve fit for these compounds.
Briefly, on the day of infection, 5×10^3 Vero E6 cells were seeded in 20 μL cell culture medium (containing 5% FBS) in 384-well plates, using a MultiFlo FX multi-mode microplate dispenser (BioTek). The same day, compounds were added to the cells (25 μL/well, in EMEM with 5% FBS, 1% P/S), with 2 wells per concentration. After 2 h of compound preincubation, 5 μL of virus was added to the wells using a multi-channel pipette to MOI=0.1. Viruses were diluted in EMEM with 5% FBS, 1% P/S and was kept on ice until cells were ready for infection. Eight virus-only control wells were included as the […]. The virus plus cells and the cells were used to normalize the data set. After 72 h, 30 μL of CellTiter-Glo (Promega) was dispensed into each well by a MultiFlo FX multi-mode microplate dispenser. After a 10 min incubation at room temperature, the plates were loaded into a Perkin EnVision multi-mode microplate reader to read luminescence.
Background: Protection from cytopathic effect is a common read-out in antiviral testing.

The mark [3] stands for this setting: read-out: IC50 (μM) - 2 min, 2 min co-incubation of enzyme and inhibitor, with standard deviation.
Setting [4] is: read-out: IC50 (μM) - 120 min, 120 min pre-incubation, with standard deviation.

With `CC(C)CC1CN(C(=O)CCl)CCN1Cc1cccc(Cl)c1` (centres unmarked) [D], at SARS-CoV-2 M^pro [1], the inhibition constant Ki is at least 62.5 µM and the “kinact (10^−3 s^−1)” value was ≥16.6 10^−3 s^−1. On SARS-CoV-2 M^pro [2] (setting [3]), the IC50 stood at 16 ± 0.9 µM. Also, at SARS-CoV-2 M^pro [2] (setting [4]), the IC50 was 0.41 ± 0.06 µM. Besides, the “fold decrease in IC50, initial vs final inhibition value” on SARS-CoV-2 M^pro [2] amounted to 39 fold.

Take `O=C(CCl)N1CCN(Cc2cccc3ccccc23)CC1` [Compound A]: the cytotoxic effect entry in the data set on Vero E6 (CRL-1586) cells was “less than other compounds”. Moreover, the inactivation efficiency (kinact/KI) at SARS-CoV-2 M^pro [1] (inactivation efficiency) stood at 441 ± 297 M⁻¹ s⁻¹. This compound also showed a Ki on SARS-CoV-2 M^pro [1] of 11.5 µM. Moreover, the “kinact (10^−3 s^−1)” value at SARS-CoV-2 M^pro [1] was 5.1 ± 0.5 10^−3 s^−1. Further, the IC50 is 16.3 ± 1.3 µM at SARS-CoV-2 M^pro [2] (setting [3]) and 0.3 ± 0.03 µM at SARS-CoV-2 M^pro [2] (setting [4]). Also, the “fold decrease in IC50, initial vs final inhibition value” at SARS-CoV-2 M^pro [2] was determined as 54 fold.

As for `O=C(CCl)N1CCN(Cc2cccc(Cl)c2)CC1` [Compound B], at SARS-CoV-2 M^pro [1] (inactivation efficiency), the “kinact/KI” value came out at 697 ± 697 M⁻¹ s⁻¹. Also, at SARS-CoV-2 M^pro [1], the Ki was 5.97 µM and 6 µM; the “kinact (10^−3 s^−1)” value was 4.2 ± 0.8 10^−3 s^−1. Also, at SARS-CoV-2 M^pro [2] (setting [3]), the concentration for half-maximal inhibition (IC50) stood at 12.8 ± 5.1 µM. In addition, the IC50 on SARS-CoV-2 M^pro [2] (setting [4]) was 0.4 ± 0.13 µM. For the same compound, on SARS-CoV-2 M^pro [2], the “fold decrease in IC50, initial vs final inhibition value” is recorded as 32 fold.

In the case of `COc1ccc(C2CC(c3ccccc3)=NN2C(=O)CCl)cc1OC` (centres unmarked) [Compound C], on SARS-CoV-2 M^pro [1], the “kinact/KI fold higher relative to the other compounds” value is on record as “at least 4 fold”; the inhibitory constant (Ki) was 5.27 µM and 5.3 µM; the “kinact (10^−3 s^−1)” value is reported as 23.5 ± 2.6 10^−3 s^−1. Also, the “kinact/KI (M^−1 s^−1)” value at SARS-CoV-2 M^pro [1] (inactivation efficiency) is listed as 4,460 M^−1 s^−1. The “IC50 fold lower than the IC50s of the other compounds” value against SARS-CoV-2 M^pro [2] (preliminary analysis, 2 min) is listed as “at least 5 fold”. The IC50 on SARS-CoV-2 M^pro [2] (setting [3]) was 2.39 µM and 2.4 µM. At SARS-CoV-2 M^pro [2] (read-out: IC50 after a 2-hour preincubation, 2-hour preincubation), the IC50 worked out at 0.16 µM. The “fold decrease in IC50, initial vs final inhibition value” on SARS-CoV-2 M^pro [2] was 15 fold.
